Consider nine compounds from patent US20060293360A1, “4-(2-Phenyloxyphenyl)-piperidine or-1,2,3,6-tetrahydropyridine derivatives as serotonin reuptake inhibitors” (H. Lundbeck A/S, priority 2003, published 2006).

Experiment [1] concerns the target T1, serotonin reuptake ([3H]-5-HT uptake into rat cortical synaptosomes) (Rattus norvegicus, UniProt P31652).
T1 construct: Whole brains from male Wistar rats (125-225 g), excluding cerebellum, are homogenized; from tissue; host or cells: synaptosomal fraction of whole brain (excluding cerebellum) from male Wistar rats
The experiment in a line: [3H]-5-HT uptake into rat cortical synaptosomes. In kind it is biochemical. The conditions noted are these: result in words. On the procedure:
Measurements of [^3H]-5-HT Uptake into Rat Cortical Synaptosomes.
Whole brains from male Wistar rats (125-225 g), excluding cerebellum, are homogenized in 0.32 M sucrose supplemented with 1 mM nialamid with a glass/teflon homogenizer. The homogenate is centrifuged at 600×g for 10 min at 4° C. The pellet is discarded and the supernatant is centrifuged at 20.000×g for 55 min. The final pellet is homogenized (20 sec) in this assay buffer (0.5 mg original tissue/well). Test compounds (or buffer) and 10 nM [^3H]-5-HT are added to 96 well plates and shaken briefly. 10 Composition of assay buffer: 123 mM NaCl, 4.82 mM KCl, 0.973 mM CaCl2, 1.12 mM MgSO4, 12.66 mM Na2HPO4, 2.97 mM NaH2PO4, 0.162 mM EDTA, 10 mM glucose and 1 mM ascorbic acid. Buffer is oxygenated with 95% 02/5% C02 for 10 min at 37° C. and pH is adjusted 7.4. The incubation is started by adding tissue to a final assay volume of 0.2 mL. After 15 min incubation with radioligand at 37° C., samples are filtered 15 directly on Unifilter GF/C glass fiber filters (soaked for 1 hour in 0.1% polyethylenimine) under vacuum and immediately washed with 3×0.2 ml assay buffer. Non-specific uptake is determined using citalopram (10 μM final concentration). Citalopram is included as reference in all experiments as dose-response curve.

In experiment [2] the target is T2, norepinephrine uptake ([3H]-noradrenaline uptake into rat cortical synaptosomes) (Rattus norvegicus, UniProt Q9WTR4).
T2 construct: Fresh cortex from male Wistar rats (125-225 g) are homogenized in 0.4M sucrose; from tissue; host or cells: synaptosomal fraction of fresh cortex from male Wistar rats
T2 sequence (Q9WTR4 1-597): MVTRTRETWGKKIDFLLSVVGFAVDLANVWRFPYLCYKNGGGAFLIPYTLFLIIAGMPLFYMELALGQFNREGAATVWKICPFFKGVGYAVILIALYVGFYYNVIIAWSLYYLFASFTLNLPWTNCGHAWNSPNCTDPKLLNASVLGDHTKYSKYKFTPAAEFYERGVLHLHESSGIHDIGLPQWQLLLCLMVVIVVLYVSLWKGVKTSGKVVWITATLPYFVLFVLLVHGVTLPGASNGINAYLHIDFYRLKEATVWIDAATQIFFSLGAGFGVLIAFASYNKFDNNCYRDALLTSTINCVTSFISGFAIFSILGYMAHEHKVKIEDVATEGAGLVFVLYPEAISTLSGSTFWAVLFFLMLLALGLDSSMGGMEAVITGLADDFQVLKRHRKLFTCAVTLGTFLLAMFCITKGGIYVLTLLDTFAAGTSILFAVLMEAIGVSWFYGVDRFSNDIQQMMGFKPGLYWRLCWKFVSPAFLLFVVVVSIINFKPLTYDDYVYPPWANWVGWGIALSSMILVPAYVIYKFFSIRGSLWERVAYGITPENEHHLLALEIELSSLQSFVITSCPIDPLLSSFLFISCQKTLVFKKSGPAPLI
As to the kind of experiment: [3H]Noradrenaline uptake into rat cortical synaptosomes. It counts as biochemical. The note with it: result in words. On the procedure: Measurements of [^3 H]Noradrenaline Uptake into Rat Cortical Synaptosomes.
Fresh cortex from male Wistar rats (125-225 g) are homogenized in 0.4M sucrose with a glass/teflon homogenizer. The homogenate is centrifuged at 600×g for 10 min at 4° C. The pellet is discarded and the supernatant is centrifuged at 20.000×g for 55 min. The final pellet is homogenized (20 sec) in this assay buffer (6 mg original tissue/mL=[…]). Test compounds (or buffer) and 10 nM [^3H]-noradrenaline are added to deep 96 well plates and shaken briefly. Composition of assay buffer: 123 mM NaCl, 4.82 mM 1Cl, 0.973 mM CaCl2, 1.12 mM MgSO4, 12.66 MM Na2HPO4, 2.97 MM NaH2PO4, 0.162 mM EDTA, 10 mM glucose and 1 mM ascorbic acid. Buffer is oxygenated with 95% 02/5% C02 for 10 min at 37° C. and pH is adjusted 7.4. The incubation is started by adding tissue to a final assay volume of 1 ml. After 15 min incubation with radioligand at 37° C., samples are filtered directly on Unifilter GF/C glass fiber filters (soaked for 1 hour in 0.1% polyethylenimie) under vacuum and immediately washed with 3×1 mL assay buffer. Non-specific uptake is determined using talsupram ([…] final concentration). Duloxetine is included as reference in all experiments as dose-response curve.

T1 sequence (P31652 whole entry): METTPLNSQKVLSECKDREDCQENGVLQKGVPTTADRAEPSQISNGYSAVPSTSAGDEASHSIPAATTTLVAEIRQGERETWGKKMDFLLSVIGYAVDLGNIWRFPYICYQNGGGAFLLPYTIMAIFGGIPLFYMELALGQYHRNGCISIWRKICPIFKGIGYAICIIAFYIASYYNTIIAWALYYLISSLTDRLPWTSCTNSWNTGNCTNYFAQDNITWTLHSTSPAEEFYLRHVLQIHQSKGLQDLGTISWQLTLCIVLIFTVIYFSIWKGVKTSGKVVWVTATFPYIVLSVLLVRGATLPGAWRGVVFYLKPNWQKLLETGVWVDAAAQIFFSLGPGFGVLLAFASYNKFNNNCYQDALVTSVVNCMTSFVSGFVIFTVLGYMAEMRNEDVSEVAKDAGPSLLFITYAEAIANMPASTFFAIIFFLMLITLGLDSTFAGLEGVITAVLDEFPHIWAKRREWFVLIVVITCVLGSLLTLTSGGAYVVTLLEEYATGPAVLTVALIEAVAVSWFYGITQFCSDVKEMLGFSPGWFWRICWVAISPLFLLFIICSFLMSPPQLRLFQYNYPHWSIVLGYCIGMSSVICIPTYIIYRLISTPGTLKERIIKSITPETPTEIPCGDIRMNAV

As to `Cc1cc(F)ccc1Oc1ccccc1C1=CCNCC1` [1c, 4-[2-(4-Fluoro-2-methylphenoxy)phenyl]-1,2,3,6-tetrahydropyridine], the serotonin reuptake inhibition result in experiment [1] is given as “did show serotonin reuptake inhibition”. For the same compound, in experiment [2], the norepinephrine uptake inhibition result was “did not show norepinephrine uptake inhibition”.

`COc1ccc(Oc2ccccc2C2CCNCC2)cc1OC` [3m, 4-[2-(3,4-Dimethoxy-phenoxy)-phenyl]-piperidine]: the serotonin reuptake inhibition result in experiment [1] is listed as “did show serotonin reuptake inhibition”. For the same compound, the norepinephrine uptake inhibition result in experiment [2] was “did not show norepinephrine uptake inhibition”.

In the case of `Cc1cc(Oc2ccccc2C2CCNCC2)c(C)c(C)c1C` [3i, 4-[2-(2,3,4,5-Tetramethyl-phenoxy)-phenyl]-piperidine], the serotonin reuptake inhibition result in experiment [1] is listed as “did show serotonin reuptake inhibition”. For the same compound, the norepinephrine uptake inhibition entry in experiment [2] is given as “did not show norepinephrine uptake inhibition”.

Turning to `Cc1ccc(Oc2ccccc2C2=CCNCC2)cc1` [1e, 4-[2-(4-Methylphenoxy)phenyl]-1,2,3,6-tetrahydropyridine], the serotonin reuptake inhibition entry in experiment [1] was “did show serotonin reuptake inhibition”. In addition, the norepinephrine uptake inhibition result in experiment [2] is given as “did not show norepinephrine uptake inhibition”.

`Cc1ccc(Oc2ccccc2C2=CCNCC2)c(C)c1` [1a, 4-[2-(2,4-Dimethylphenoxy)phenyl]-1,2,3,6-tetrahydropyridine]: the serotonin reuptake inhibition entry in experiment [1] is on record as “did show serotonin reuptake inhibition”. The norepinephrine uptake inhibition result in experiment [2] was “did not show norepinephrine uptake inhibition”.

Take `Cc1ccc(Oc2ccccc2C2CCNCC2)cc1C` [3h, 4-[2-(3,4-Dimethyl-phenoxy)-phenyl]-piperidine]: the serotonin reuptake inhibition result in experiment [1] is recorded as “did show serotonin reuptake inhibition”. Also, the norepinephrine uptake inhibition result in experiment [2] is “did not show norepinephrine uptake inhibition”.

For the compound `Clc1ccc(Oc2ccccc2C2=CCNCC2)cc1` [1b, 4-[2-(4-Chlorophenoxy)phenyl]-1,2,3,6-tetrahydropyridine], in experiment [1], the serotonin reuptake inhibition result is on record as “did show serotonin reuptake inhibition”. Also, in experiment [2], the norepinephrine uptake inhibition result is on record as “did not show norepinephrine uptake inhibition”.

In the case of `Fc1ccc(Oc2ccccc2C2=CCNCC2)cc1` [1d, 4-[2-(4-Fluorophenoxy)phenyl]-1,2,3,6-tetrahydropyridine], in experiment [1], the serotonin reuptake inhibition result is on record as “did show serotonin reuptake inhibition”. For the same compound, the norepinephrine uptake inhibition entry in experiment [2] is reported as “did not show norepinephrine uptake inhibition”.

On to `COc1ccc(Oc2ccccc2C2=CCNCC2)cc1` [1f, 4-[2-(4-Methoxyphenoxy)phenyl]-1,2,3,6-tetrahydropyridine], for which the serotonin reuptake inhibition entry in experiment [1] is “did show serotonin reuptake inhibition”. Further, the norepinephrine uptake inhibition result in experiment [2] was “did not show norepinephrine uptake inhibition”.
